Source: US11584747B2, “Substituted pyridopyrimidinonyl compounds useful as T cell activators” (BRISTOL-MYERS SQUIBB COMPANY, priority 2019, dated 2023)
Where two headings read alike, the source gives them in different places.

What was measured:
human DGKα [1] = molecular target: T1, human DGKα (Homo sapiens (Human), UniProt P23743); assay: DGKα LIPGLO assay (extruded liposome substrate, ADP-Glo luminescence); type: biochemical; settings: liposome assay; read-out: DGK alpha LIPGLO IC50
[2] = system: human venous whole blood (IFN-γ); assay: Human whole blood IFN-γ assay; type: cell-based; settings: whole blood, normalized to 3 μM reference compound as 100% activation, read-out: IFN-γ Whole Blood Normalized EC50
Description: Human venous whole blood (22.5 μL per well), obtained from healthy donors, was pre-treated with compounds for one hour at 37° C. in a humidified 95% air/5% CO2 incubator. The blood was stimulated with 2.5 μL anti-human CD3 and anti-CD28 mAb at a final concentration of 1 μg/mL each for 24 hours at 37° C. IFN-γ in the supernatants was measured using AlphLISA kit (Cat #AL217).

human DGKζ = human DGKζ (Homo sapiens (Human), UniProt Q13574); assay: DGKζ LIPGLO assay (extruded liposome substrate, ADP-Glo luminescence); type: biochemical; settings: liposome assay; read-out: DGK zeta LIPGLO IC50
whole blood (pERK) = assay: pERK Whole Blood assay (Table A; no whole-blood pERK method described); type: cell-based; settings: normalized
human DGKα [3] = molecular target: T1, human DGKα; assay: DGKα ADPGLO assay (detergent/lipid micelle substrate); type: biochemical; settings: truncated DGK alpha; read-out: DGK alpha ADPGLO (Truncated) IC50
Description: DGK Alpha ADPGLO (Truncated) IC50 (uM)
The detergent/lipid micelle was prepared by combining 15 g phosphatidylserine (Avanti 840035P) and 1 g diacylglycerol (8008110) and dissolving into 150 mL chloroform in a 2 L round bottom flask. Chloroform was removed under high vacuum by rotary evaporation. […] The lipid/detergent solution was split into 5 mL aliquots and stored at −80° C.

human DGKζ, sequence (Q13574 other isoform, or with tags, fused parts or gaps): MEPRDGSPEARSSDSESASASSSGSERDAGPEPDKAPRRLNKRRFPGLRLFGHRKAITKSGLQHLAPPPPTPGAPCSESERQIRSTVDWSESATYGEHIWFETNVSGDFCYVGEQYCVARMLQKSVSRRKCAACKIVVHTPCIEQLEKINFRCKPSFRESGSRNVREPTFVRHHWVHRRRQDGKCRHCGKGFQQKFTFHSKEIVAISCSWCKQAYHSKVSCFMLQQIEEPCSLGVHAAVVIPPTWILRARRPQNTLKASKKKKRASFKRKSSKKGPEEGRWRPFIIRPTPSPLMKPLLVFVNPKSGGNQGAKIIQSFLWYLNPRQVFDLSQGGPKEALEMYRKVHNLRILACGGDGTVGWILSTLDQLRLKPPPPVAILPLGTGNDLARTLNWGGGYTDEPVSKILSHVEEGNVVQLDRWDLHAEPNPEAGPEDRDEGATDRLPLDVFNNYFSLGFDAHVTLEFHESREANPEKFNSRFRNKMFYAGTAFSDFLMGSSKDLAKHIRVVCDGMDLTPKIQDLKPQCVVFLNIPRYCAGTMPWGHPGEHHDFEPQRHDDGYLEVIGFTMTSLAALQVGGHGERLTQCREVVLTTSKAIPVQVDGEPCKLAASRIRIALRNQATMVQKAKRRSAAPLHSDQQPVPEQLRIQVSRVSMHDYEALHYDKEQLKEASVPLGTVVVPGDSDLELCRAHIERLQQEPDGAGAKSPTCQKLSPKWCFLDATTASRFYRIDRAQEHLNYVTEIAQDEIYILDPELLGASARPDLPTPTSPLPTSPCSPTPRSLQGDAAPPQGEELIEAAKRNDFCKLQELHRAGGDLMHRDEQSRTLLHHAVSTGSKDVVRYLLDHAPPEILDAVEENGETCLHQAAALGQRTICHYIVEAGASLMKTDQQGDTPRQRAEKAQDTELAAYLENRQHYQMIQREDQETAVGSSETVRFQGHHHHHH
T1 sequence (P23743 whole entry, looked up): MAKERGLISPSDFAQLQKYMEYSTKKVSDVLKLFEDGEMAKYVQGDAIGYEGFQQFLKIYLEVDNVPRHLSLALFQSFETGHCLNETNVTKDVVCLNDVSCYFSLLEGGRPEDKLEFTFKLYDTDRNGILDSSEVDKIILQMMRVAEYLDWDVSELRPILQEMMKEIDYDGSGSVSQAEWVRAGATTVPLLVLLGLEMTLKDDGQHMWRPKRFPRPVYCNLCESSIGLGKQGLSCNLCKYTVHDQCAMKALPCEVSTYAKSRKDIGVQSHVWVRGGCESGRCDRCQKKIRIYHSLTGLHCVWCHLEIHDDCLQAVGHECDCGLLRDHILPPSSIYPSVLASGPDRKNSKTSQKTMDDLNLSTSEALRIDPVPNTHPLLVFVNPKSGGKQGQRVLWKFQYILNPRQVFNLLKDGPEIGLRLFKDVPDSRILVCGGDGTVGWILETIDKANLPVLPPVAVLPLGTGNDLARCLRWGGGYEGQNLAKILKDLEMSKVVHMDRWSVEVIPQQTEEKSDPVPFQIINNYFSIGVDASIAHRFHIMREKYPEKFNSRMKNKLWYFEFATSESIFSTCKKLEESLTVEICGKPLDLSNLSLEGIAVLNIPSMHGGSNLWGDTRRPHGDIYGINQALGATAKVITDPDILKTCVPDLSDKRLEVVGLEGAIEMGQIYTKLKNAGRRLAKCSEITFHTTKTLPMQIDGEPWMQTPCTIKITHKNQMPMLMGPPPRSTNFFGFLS

IC50 (human DGKα [1]) [nM]	IC50 (human DGKζ) [nM]	IC50 (human DGKα [3]) [nM]	SMILES	EC50 [2] [nM]	IC50 (whole blood (pERK)) [nM]	EC50 ([2]; Homo sapiens) [nM]
30	120		CC[C@H]1CN(C(c2ccc(F)cc2)c2ccon2)[C@H](CC)CN1c1nc(=O)n(C)c2ccc(C#N)nc12 (single isomer, unassigned) [Example 35]	120	150	
140	66		CC[C@@H]1CN(c2nc(=O)n(C)c3ccc(C#N)nc23)[C@@H](C)CN1C(c1ccc(F)cc1)c1cc(C2CC2)on1 (single isomer, unassigned) [Example 101]		250	100
16	48		CC[C@@H]1CN(c2nc(=O)n(C)c3ccc(C#N)nc23)[C@@H](C)CN1C(C)c1ccc(OC(F)(F)F)cc1 (single isomer, unassigned) [Example 48]	18	25	
330	1380		CC(c1ccc(OC(F)F)cc1)N1C[C@H](C)N(c2nc(=O)n(C)c3ccc(C#N)nc23)C[C@H]1C (single isomer, unassigned) [Example 157]		4360	1420
29	92		CCC(c1ccc(OC(F)(F)F)cc1F)N1C[C@H](C)N(c2nc(=O)n(C)c3ccc(C#N)nc23)C[C@H]1C (single isomer, unassigned) [Example 152]	200	110	
180	110		COC[C@@H]1CN(c2nc(=O)n(C)c3ccc(C#N)nc23)[C@@H](C)CN1C(C)c1ccc(OC(F)(F)F)cc1 (single isomer, unassigned) [Example 176]	190	210	
560	2560		C[C@@H]1CN(c2nc(=O)n(C)c3ccc(C#N)nc23)[C@@H](C)CN1C(c1ccc(F)cc1)c1ccc(F)cc1 [Example 124, 4-((2S,5R)-4-(bis(4-fluorophenyl)methyl)-2,5-dimethylpiperazin-1-yl)-1-methyl-2-oxo-1,2-dihydropyrido[3,2-d]pyrimidine-6-carbonitrile]		270	500
76	4		CC[C@H]1CN(C(C)c2ccc(OC(F)(F)F)c(F)c2)[C@H](CC)CN1c1nc(=O)n(C)c2ccc(C#N)nc12 (single isomer, unassigned) [Example 30]	23	59	
10	130		CC(c1ccc(OC(F)(F)F)cc1)N1C[C@H](C)N(c2nc(=O)n(C)c3ccc(C#N)nc23)C[C@H]1C (single isomer, unassigned) [Example 131]	360	170	
8290	42		CC[C@H]1CN(C(c2ccc(F)cc2)c2nc(C3CC3)nn2C)[C@H](CC)CN1c1nc(=O)n(C)c2ccc(C#N)nc12 (single isomer, unassigned) [Example 294]		200	660
400	50		C[C@@H]1CN(c2nc(=O)n(C)c3ccc(C#N)nc23)[C@@H](C)CN1C(c1ccc(F)cc1)c1nc(C(C)(C)C)no1 (single isomer, unassigned) [Example 108]		28	57
40	10		CC[C@H]1CN(C(C)c2ccc(C3CC3)cc2)[C@H](CC)CN1c1nc(=O)n(C)c2ccc(C#N)nc12 (single isomer, unassigned) [Example 29]	27	100	
130	40		C[C@@H]1CN(c2nc(=O)n(C)c3ccc(C#N)nc23)[C@@H](C)CN1C(c1ccc(F)cc1)c1nc(C2CC2)no1 (single isomer, unassigned) [Example 107]	49	120	
230	150		CC(c1ccc(C2CC2)cc1F)N1C[C@H](C)N(c2nc(=O)n(C)c3ccc(C#N)nc23)C[C@H]1C (single isomer, unassigned) [Example 168]	110	220	
240	350		CC[C@@H]1CN(c2nc(=O)n(C)c3ccc(C#N)nc23)[C@@H](C)CN1Cc1ccc(OC(F)(F)F)cc1 [Example 54, 4-((2S,5R)-5-ethyl-2-methyl-4-(4-(trifluoromethoxy)benzyl)piperazin-1-yl)-1-methyl-2-oxo-1,2-dihydropyrido[3,2-d]pyrimidine-6-carbonitrile]		910	310
37	11		CC[C@@H]1CN(c2nc(=O)n(C)c3ccc(C#N)nc23)[C@@H](C)CN1C(C)c1ccc(OC)cc1 (single isomer, unassigned) [Example 56]	39	200	

IC50 (human DGKα [1]) [nM]	IC50 (human DGKζ) [nM]	IC50 (human DGKα [3]) [nM]	SMILES	EC50 [2] [nM]	IC50 (whole blood (pERK)) [nM]	EC50 ([2]; Homo sapiens) [nM]
58	29		CC[C@H]1CN(C(C)c2ccc(OCC3CC3)cc2)[C@H](CC)CN1c1nc(=O)n(C)c2ccc(C#N)nc12 (single isomer, unassigned) [Example 23]	11	86	
350	200		CC(c1ccc(C(F)(F)F)cc1F)N1C[C@H](C)N(c2nc(=O)n(C)c3ccc(C#N)nc23)C[C@H]1C (single isomer, unassigned) [Example 150]		140	480
38	460		C[C@@H]1CN(c2nc(=O)n(C)c3ccc(C#N)nc23)[C@@H](C)CN1C(c1ccc(F)cc1)c1ccon1 (single isomer, unassigned) [Example 163]	250	490	
3460	830		CC(c1ccc(C(F)(F)F)cc1F)N1C[C@H](C)N(c2nc(=O)n(C)c3ccc(C#N)nc23)C[C@H]1C (single isomer, unassigned) [Example 151]		1870	
28	46		CC(c1ccc(F)cc1F)N1C[C@H](C)N(c2nc(=O)n(C)c3ccc(C#N)nc23)C[C@H]1C (single isomer, unassigned) [Example 144]		65	
1330	2120		CC(c1ccc(OC(F)(F)F)cc1F)N1C[C@H](C)N(c2nc(=O)n(C)c3ccc(C#N)nc23)C[C@H]1C (single isomer, unassigned) [Example 143]		1140	
320	41		CC[C@H]1CN(C(C)c2ccc(C3CC3)cc2F)[C@H](CC)CN1c1nc(=O)n(C)c2ccc(C#N)nc12 (single isomer, unassigned) [Example 40]	21	10	
110	250		CC(c1ccc(OC(F)(F)F)c(F)c1)N1C[C@H](C)N(c2nc(=O)n(C)c3ccc(C#N)nc23)C[C@H]1C (single isomer, unassigned) [Example 160]	240	860	
300	130		CC[C@@H]1CN(c2nc(=O)n(C)c3ccc(C#N)nc23)[C@@H](C)CN1C(C)c1ccc(OC(F)(F)F)cc1F (single isomer, unassigned) [Example 81]	57	99	
39	33		CC[C@@H]1CN(c2nc(=O)n(C)c3ccc(C#N)nc23)[C@@H](C)CN1C(c1ccc(F)cc1)c1ccc(C2CC2)cn1 (single isomer, unassigned) [Example 75]	30	100	
1460	1130		CC(c1ccc(Cl)cc1F)N1C[C@H](C)N(c2nc(=O)n(C)c3ccc(C#N)nc23)C[C@H]1C (single isomer, unassigned) [Example 147]		1000	
	520	18	CC[C@@H]1CN(c2nc(=O)n(C)c3ccc(C#N)nc23)[C@@H](C)CN1C(c1ccc(OC(F)(F)F)cc1)c1ccccn1 (single isomer, unassigned) [Example 93]	170	670	
	58	9	CCC(c1ccc(C)cc1)N1C[C@H](CC)N(c2nc(=O)n(C)c3ccc(C#N)nc23)C[C@H]1CC (stereo partly drawn) [Example 236, 4-((2S,5R)-2,5-diethyl-4-(1-(p-tolyl)propyl)piperazin-1-yl)-1-methyl-2-oxo-1,2-dihydropyrido[3,2-d]pyrimidine-6-carbonitrile]	12	44	
	51000	3980	CC[C@H]1CN(C(C)c2cnc(N3CCOCC3)nc2)[C@H](CC)CN1c1nc(=O)n(C)c2ccc(C#N)nc12 (stereo partly drawn) [Example 206, 4-((2S,5R)-2,5-diethyl-4-(1-(2-morpholinopyrimidin-5-yl)ethyl)piperazin-1-yl)-1-methyl-2-oxo-1,2-dihydropyrido[3,2-d] pyrimidine-6-carbonitrile]	20000	80	
	6620	2010	CC[C@H]1CN(C(C)c2cccc(OC)n2)[C@H](CC)CN1c1nc(=O)n(C)c2ccc(C#N)nc12 (stereo partly drawn) [Example 214, 4-((2S,5R)-2,5-diethyl-4-(1-(6-methoxypyridin-2-yl)ethyl)piperazin-1-yl)-1-methyl-2-oxo-1,2-dihydropyrido[3,2-d]pyrimidine-6-carbonitrile]	20000	66	
